One assay concerns cilia and mitochondria. Briefly: CLA-tyramide labeling in cilia and mitochondria, detection with EGFP-HaloTag protein. The following applies: 250 μM CLA-tyramide; FIGS. 3B and 3D. The assay is classed as cell-based. The method, then:
CLA-tyramide labeling was conducted in cilia and mitochondria. FIGS. 3A and 3B show CLA-tyramide labeling in cilia. FIGS. 3C and 3D show CLA-tyramide labeling in mitochondria. FIGS. 3B and 3D are from experiments in which 250 μM CLA-tyramide was applied to cells. Cells were fixed, permeabilized, and incubated with EGFP-HaloTag protein.

Another assay concerns APEX2 in the mouse brain. As to the kind of experiment: CLA-tyramide (CLA-phenol) mediated proximity labeling in mouse brain. The class given is in vivo. The following applies: mouse brain samples; FIGS. 4A-4B. The method, then:
CLA-tyramide (CLA-phenol) mediated proximity labeling was conducted in mouse brain. […] The mouse brain samples were fixed, permeabilized, and incubated with HaloTag protein. The samples were then stained with antibodies against HaloTag and V5 (on APEX2) to label CLA-tagged proteins and APEX2, respectively.

For assay [1], the system named is cultured primary neurons expressing LAMP1-APEX2-V5. Briefly: CLA-tyramide proximity labeling of neuronal lysosomal proteins, imaging with HaloTag protein and antibody staining. The following applies: 150 μM CLA-tyramide, FIG. 2C. The class given is cell-based, rat. From the text:
The exemplary system studied in this Example makes use of a unique substrate for proximity labeling, which is a CLA-phenol compound, which in some cases is referred to herein as a CLA-tyramide compound. As will be appreciated, the chemical structure of tyramide includes a phenol moiety. To establish efficacy, the exemplary system was used to detect proteins that are enriched in neuronal lysosomes with lysosome-targeted APEX2 (Lamp1-APEX2).
With reference to FIG. 2A, cultured primary neurons expressing LAMP1-APEX2-V5 were incubated with 0 μM, 50 μM, 150 μM, or 500 μM CLA-tyramide, respectively. Neurons were fixed, permeabilized, and incubated with HaloTag protein. Cells were then stained with antibodies against HaloTag, V5, and MAP5 to label CLA-tagged proteins, LAMP1-APEX2-V5 (lysosome APEX2), and neurons, respectively.
Line scans show the relative intensity of CLA-tagged proteins and LAMP1-APEX2-V5.

SMILES strings stand for the structures.

Turning to `O=C(NCCOCCOCCCCCCCl)NCCc1ccc(O)cc1` [CLA-tyramide], in the assay with cilia and mitochondria, the “labeling in different subcellular compartments (cilia, mitochondria)” value is listed as “can be applied to different subcellular compartments”. In addition, in the assay on APEX2 in the mouse brain, the “co-localization of CLA-tagged proteins and APEX2 (V5)” value is given as “good co-localization of most structures”. The “colocalization of CLA-tagged proteins and LAMP1-APEX2-V5 (line scans of relative intensity)” value in assay [1] is “Good colocalization”.
